Test system: hexokinase from Saccharomyces cerevisiae
Assay: initial rates of ADP generation monitored with 5-ATR-ParM biosensor
Format: biochemical
Conditions: read-out: KM^glucose; 1 mM ATP, 50 mM Tris-HCl pH 7.5, 25 mM KCl, 10 mM MgCl2, 20 °C

OC[C@H]1OC(O)[C@H](O)[C@@H](O)[C@@H]1O (stereo partly drawn) [D-glucose]
Km: 180 ± 9 µM

Source: article PMC2855616 (ACS Chemical Biology, 2010)
